Measured values as given in patent US20250368647A1, “NITROGEN CONTAINING CONDENSED 2,3-DIHYDROQUINAZOLINONE COMPOUNDS AS NAV1.8 INHIBITORS” (GLAXOSMITHKLINE INTELLECTUAL PROPERTY DEVELOPMENT LIMITED, priority 2022, published 2025).
Counter-ions that a name gives are not always drawn.

Each compound was assayed against human Nav1.8 (Homo sapiens (Human), UniProt Q9Y5Y9) (assay: QPatch 48 HTX voltage-clamp electrophysiology, half inactivation state (V1/2) protocol, HEK293-Nav1.8 cells). Details: HEK293 cells expressing human Nav1.8, human Navβ1 and human TREK1, P2 current.
Sequence of human Nav1.8 (Q9Y5Y9 whole entry): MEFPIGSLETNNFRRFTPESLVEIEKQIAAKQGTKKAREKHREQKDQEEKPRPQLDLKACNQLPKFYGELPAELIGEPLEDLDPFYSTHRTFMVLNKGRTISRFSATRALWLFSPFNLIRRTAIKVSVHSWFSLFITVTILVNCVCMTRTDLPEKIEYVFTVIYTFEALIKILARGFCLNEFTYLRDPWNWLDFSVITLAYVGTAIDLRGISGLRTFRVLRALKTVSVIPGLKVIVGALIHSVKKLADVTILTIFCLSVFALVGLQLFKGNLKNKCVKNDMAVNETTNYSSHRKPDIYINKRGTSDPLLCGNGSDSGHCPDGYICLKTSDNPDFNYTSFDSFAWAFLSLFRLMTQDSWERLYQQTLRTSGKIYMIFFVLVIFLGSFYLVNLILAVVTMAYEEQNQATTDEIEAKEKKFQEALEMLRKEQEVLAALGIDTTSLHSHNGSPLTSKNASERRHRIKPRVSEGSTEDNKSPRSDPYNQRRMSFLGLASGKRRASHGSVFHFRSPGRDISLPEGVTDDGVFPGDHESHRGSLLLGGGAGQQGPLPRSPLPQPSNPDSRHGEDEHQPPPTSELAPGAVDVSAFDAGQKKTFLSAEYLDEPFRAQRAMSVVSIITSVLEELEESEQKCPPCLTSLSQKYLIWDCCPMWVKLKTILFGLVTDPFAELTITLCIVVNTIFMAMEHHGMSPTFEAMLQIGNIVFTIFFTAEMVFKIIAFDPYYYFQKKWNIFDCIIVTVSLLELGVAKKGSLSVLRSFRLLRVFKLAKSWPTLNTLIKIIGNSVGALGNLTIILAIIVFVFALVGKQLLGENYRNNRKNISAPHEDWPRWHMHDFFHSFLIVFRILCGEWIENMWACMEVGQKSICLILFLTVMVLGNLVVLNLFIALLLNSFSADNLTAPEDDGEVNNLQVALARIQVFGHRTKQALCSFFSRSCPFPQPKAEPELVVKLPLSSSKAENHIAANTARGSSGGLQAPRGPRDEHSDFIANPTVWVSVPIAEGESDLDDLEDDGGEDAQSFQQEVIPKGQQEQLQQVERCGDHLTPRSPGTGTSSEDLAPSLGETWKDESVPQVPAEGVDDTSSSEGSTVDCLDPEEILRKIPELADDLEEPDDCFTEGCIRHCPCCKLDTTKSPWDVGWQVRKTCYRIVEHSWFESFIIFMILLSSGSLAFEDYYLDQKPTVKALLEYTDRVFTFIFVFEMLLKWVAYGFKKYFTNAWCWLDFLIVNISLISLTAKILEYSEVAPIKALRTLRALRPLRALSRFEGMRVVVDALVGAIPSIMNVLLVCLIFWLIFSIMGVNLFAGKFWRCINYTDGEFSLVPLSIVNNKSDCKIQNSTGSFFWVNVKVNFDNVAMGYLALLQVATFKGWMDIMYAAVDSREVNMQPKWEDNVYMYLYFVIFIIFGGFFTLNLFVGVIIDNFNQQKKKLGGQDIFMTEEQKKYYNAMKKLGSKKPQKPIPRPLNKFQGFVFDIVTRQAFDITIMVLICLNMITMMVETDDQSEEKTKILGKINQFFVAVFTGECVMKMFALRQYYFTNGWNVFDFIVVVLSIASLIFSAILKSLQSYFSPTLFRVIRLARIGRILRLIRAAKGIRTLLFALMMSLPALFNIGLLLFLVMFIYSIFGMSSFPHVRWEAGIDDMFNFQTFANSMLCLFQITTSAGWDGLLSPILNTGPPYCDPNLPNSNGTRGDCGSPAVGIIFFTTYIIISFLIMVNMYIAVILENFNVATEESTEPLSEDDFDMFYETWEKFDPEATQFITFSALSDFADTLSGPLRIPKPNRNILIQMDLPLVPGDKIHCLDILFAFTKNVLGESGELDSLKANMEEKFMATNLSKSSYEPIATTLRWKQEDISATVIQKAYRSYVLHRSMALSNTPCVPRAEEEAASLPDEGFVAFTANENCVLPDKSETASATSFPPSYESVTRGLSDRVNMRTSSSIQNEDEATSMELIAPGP
Sequence of human Nav1.8 (Q07699 19-218 partner): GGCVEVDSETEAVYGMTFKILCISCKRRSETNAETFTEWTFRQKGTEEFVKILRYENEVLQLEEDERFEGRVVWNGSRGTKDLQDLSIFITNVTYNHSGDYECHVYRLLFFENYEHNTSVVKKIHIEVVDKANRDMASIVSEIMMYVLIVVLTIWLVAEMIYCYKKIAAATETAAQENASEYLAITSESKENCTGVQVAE
Assay type: cell-based
Protocol: Human embryonic kidney 293 cells (HEK293) expressing human Nav1.8, human Navβ1 and human TREK1 (HEK293-Nav1.8) were grown in T150 cell culture flasks at 37° C., 5% CO2 incubator. HEK293-Nav1.8 were passaged every 2-3 days when confluency reached 80-90% in T150 cell culture flasks.
Pharmacological assessment of compounds of the invention was performed using the QPatch 48 HTX electrophysiological platform. HEK293-Nav1.8 cells were prepared on the day of use by removing culture media, washing in DPBS, adding Accutase (2 mL to cover the surface, aspirate 1 mL then 1-2 minutes at 37° C.) followed by addition of CHO-SFM II to stop the enzyme digestion and in order to obtain a suspension of 3×10^6 cell/mL.
Compounds of the invention were prepared in an extracellular solution of the following composition: NaCl (145 mM), KCl (4 mM), CaCl2) (2 mM), MgCl (2 mM), HEPES (1 mM), Glucose (10 mM), pH 7.4 with NaOH Osmolality 300 mOsM/L. An intracellular solution of the following composition was used: CsF (115 mM), CsCl (20 mM), NaCl (5 mM), EGTA (10 mM), HEPES (10 mM), Sucrose (20 mM), pH 7.2 with CsOH Osmolality 310 mOsm/L.
Utilizing the voltage-clamp mode in the QPatch 48 HTX system a half inactivation state voltage protocol (V1/2) was used to determine pharmacological activity of compounds of the invention at Nav1.8 ion channels. A V1/2 protocol was utilized with the following voltage steps: a holding voltage of −100 mV was established followed by a 20 ms voltage step to 0 mV (P1), followed by an inactivating voltage step at −46 mV for 8 seconds, followed by a step to −100 mV for 20 ms, before a 20 ms step to 0 mV (P2), then returned to the holding voltage of −100 mV. This voltage protocol was repeated at a frequency of every 15 seconds, the current magnitude was quantified at the P2 step throughout the recording. Inhibition of the measured current amplitude with compounds of the invention was analyzed by fitting a 4-6 points dose-response curve allowing determination of the fifty percent inhibition concentration (IC50). P2 currents were normalized according to measurements made at baseline (Baseline, vehicle only), after compound (Input, at each test concentration), and after positive reference compound (FullResponse, to achieve complete block), fit to the following equation: […]
To assess current run-down over the course of the experiment vehicle-only wells were utilized and the normalized current with vehicle-only (n.IVEH) was determined. To correct the compound response for run-down, the currents were corrected according to the following formula: […]
Compound inhibition was fitted to the following Hill Equation to estimate the half maximal inhibition concentration (IC50)
[formula] • where Y is the normalized run-down corrected inhibition relative to the vehicle control (equivalent to n.IRD_Correct), C the test compound concentration, IC50 the concentration of test compound to inhibit the sodium current by 50%, and h the Hill coefficient.

SMILES | Nav1.8, pIC50
CC1NCCc2[nH]c(=O)ccc2N2CN(c3ccc(C(F)(F)F)cc3C2=O)c2ccc(F)cc21 (racemic) [Example 114, 8-Fluoro-10-methyl-2-(trifluoromethyl)-10,11,12,13-tetrahydro-19H-5,18-methanodibenzo[c,f]-pyrido[3,2-j][1,5,9]triazacyclotridecine-15,19(14H)-dione hydrochloride] | 6.8
CC1NCCc2[nH]c(=O)ccc2N2CN(c3cc(C(F)(F)F)c(F)cc3C2=O)c2ccc(F)cc21 (racemic) [Example 117, 2,8-Difluoro-10-methyl-3-(trifluoromethyl)-10,11,12,13-tetrahydro-19H-5,18-methanodibenzo-[c,f]pyrido[3,2-j][1,5,9]triazacyclotridecine-15,19(14H)-dione hydrochloride] | 7.3
CC1NCCc2[nH]c(=O)ccc2N2CN(c3cc(Cl)c(F)cc3C2=O)c2ccc(F)cc21 (racemic) [Example 120, 3-Chloro-2,8-difluoro-10-methyl-10,11,12,13-tetrahydro-19H-5,18-methanodibenzo[c,f]pyrido-[3,2-j][1,5,9]triazacyclotridecine-15,19(14H)-dione hydrochloride] | 7
CC1Cc2[nH]c(=O)ccc2N2CN(c3ccc(F)cc3CN1)c1cc(C(F)(F)F)c(F)cc1C2=O (racemic) [Example 123, 2,8-Difluoro-12-methyl-3-(trifluoromethyl)-10,11,12,13-tetrahydro-19H-5,18-methanodibenzo-[c,f]pyrido[3,2-j][1,5,9]triazacyclotridecine-15,19(14H)-dione hydrochloride] | 6.1
O=C1c2cc(C(F)(F)F)ccc2N2CN1c1ccc(=O)[nH]c1/C=C/Cc1cc(F)ccc12 [Example 1, (E)-8-Fluoro-2-(trifluoromethyl)-13-hydro-10H, 18H,-5,17-methanodibenzo[b,k]pyrido[3,2-f][1,5]diazacyclododecine-14,18-dione] | 5.1
O=C1c2cc(C(F)(F)F)ccc2N2CN1c1ccc(=O)[nH]c1CCCc1cc(F)ccc12 [Example 2, 14-Fluoro-8-(trifluoromethyl)-17,18-dihydro-1H,6H-5,11-methanodibenzo[b,k]pyridino[3,2-f][1,5]diazacyclododecine-2,6(16H)-dione] | 6.0
O=C1c2cc(C(F)(F)F)ccc2N2CN1c1ccc(=O)[nH]c1C/C=C\Cc1cc(F)ccc12 [Example 3, 8-Fluoro-2-(trifluoromethyl)-10,13-dihydro-19H-5,18-methanodibenzo[b,l]pyrido[3,2-f][1,5]diazacyclotridecine-15,19(14H)-dione] | 6.4
O=C1c2cc(C(F)(F)F)ccc2N2CN1c1ccc(=O)[nH]c1CCCCc1cc(F)ccc12 [Example 4, 8-Fluoro-2-(trifluoromethyl)-10,11,12,13-tetrahydro-19H-5,18-methanodibenzo[b,l]pyridino[3,2-f][1,5]diazacyclotridecine-15,19(14H)-dione] | 6.8
O=C1c2ccc(C(F)(F)F)cc2N2CN1c1ccc(=O)[nH]c1C/C=C\Cc1cc(F)ccc12 [Example 5, 8-Fluoro-3-(trifluoromethyl)-10,13-dihydro-19H-5,18-methanodibenzo[b,l]pyrido[3,2f][1,5]diazacyclo tridecin-15,19(14H)-dione] | 6.3
O=C1c2ccc(C(F)(F)F)cc2N2CN1c1ccc(=O)[nH]c1CCCCc1cc(F)ccc12 [Example 6, 8-fluoro-3-(trifluoromethyl)-10,11,12,13-tetrahydro-19H-5,18-methanodibenzo[b,l]pyridino[3,2-f][1,5]diazacyclotridecine-15,19(14H)-dione] | 7.1
O=C1c2cc(C(F)(F)F)ccc2N2CN1c1ccc(=O)[nH]c1CCCCCc1cc(F)ccc12 [Example 7, 3^4-Fluoro-2^6-(trifluoromethyl)-1^1,1^2,2^1,2^2,2^3,2^4-hexahydro-2(3,1)-quinazolina-1(5,6)-pyridina-3(1,2)-benzenacyclooctaphane-1^2,2^4-dione] | 8.1
O=C1c2ccc(C(F)(F)F)cc2N2CN1c1ccc(=O)[nH]c1CCCCCc1cc(F)ccc12 [Example 8, 3^4-Fluoro-2^7-(trifluoromethyl)-1^1,1^2,2^1,2^2,2^3,2^4-hexahydro-2(3,1)-quinazolina-1(5,6)-pyridina-3(1,2)-benzenacyclooctaphane-1^2,2^4-dione] | 8.4
O=C1c2cnc(C(F)(F)F)cc2N2CN1c1ccc(=O)[nH]c1CCCCCc1cc(F)ccc12 [Example 9, 3^4-Fluoro-2^7-(trifluoromethyl)-1^1,1^2,2^1,2^2,2^3,2^4-hexahydro-2(3,1)-pyrido[4,3-d]pyrimidina-1(5,6)-pyridina-3(1,2)-benzenacyclooctaphane-1^2,2^4-dione] | 7.3
O=C1c2cc(C(F)(F)F)ccc2N2CN1c1ccc(=O)[nH]c1CCCCCCc1cc(F)ccc12 [Example 10, 3^4-Fluoro-2^6-(trifluoromethyl)-1^1,1^2,2^1,2^2,2^3,2^4-hexahydro-2(3,1)-quinazolina-1(5,6)-pyridina-3(1,2)-benzenacyclononaphane-1^2,2^4-dione] | 6.5
O=C1c2cc(C(F)(F)F)ccc2N2CN1c1ccc(=O)[nH]c1NCCCCc1cc(F)ccc12 [Example 11, 3^4-Fluoro-2^6-(trifluoromethyl)-1^1,1^2,2^1,2^2,2^3,2^4-hexahydro-8-aza-2(3,1)-quinazolina-1(5,6)-pyridina-3(1,2)-benzenacyclooctaphane-1^2,2^4-dione] | 7.3
O=C1c2ccc(C(F)(F)F)cc2N2CN1c1ccc(=O)[nH]c1NCCCCc1cc(F)ccc12 [Example 12, 3^4-Fluoro-2^7-(trifluoromethyl)-1^1,1^2,2^1,2^2,2^3,2^4-hexahydro-8-aza-2(3,1)-quinazolina-1(5,6)-pyridina-3(1,2)-benzenacyclooctaphane-1^2,2^4-dione] | 7.6
CN1CCCCc2cc(F)ccc2N2CN(C(=O)c3ccc(C(F)(F)F)cc32)c2ccc(=O)[nH]c21 [Example 13, 3^4-Fluoro-8-methyl-2^7-(trifluoromethyl)-1^1,1^2,2^1,2^2,2^3,2^4-hexahydro-8-aza-2(3,1)-quinazolina-1(5,6)-pyridina-3(1,2)-benzenacyclooctaphan-1^2,2^4-dione] | 7.3

Same assay, conditions: HEK293 cells expressing human Nav1.8, human Navβ1 and human TREK1, P2 current, read-out: Nav1.8, pIC50 (converted)

SMILES | IC50 [µM]
CC1Cc2[nH]c(=O)ccc2N2CN(c3ccc(F)cc3CN1)c1cc(C(F)(F)F)c(F)cc1C2=O (single isomer, unassigned; isomer 1) [Example 124, 2,8-difluoro-12-methyl-3-(trifluoromethyl)-10,11,12,13-tetrahydro-19H-5,18-methanodibenzo[c,f]pyrido[3,2-j][1,5,9]triazacyclotridecine-15,19(14H)-dione, Isomer 1] | 1.58
CC1Cc2[nH]c(=O)ccc2N2CN(c3ccc(F)cc3CN1)c1cc(C(F)(F)F)c(F)cc1C2=O (single isomer, unassigned; isomer 2) [Example 125, 2,8-difluoro-12-methyl-3-(trifluoromethyl)-10,11,12,13-tetrahydro-19H-5,18-methanodibenzo[c,f]pyrido[3,2-j][1,5,9]triazacyclotridecine-15,19(14H)-dione, Isomer 2] | 0.631
